Consider two compounds from US20230411006A1, “METHOD FOR ASSESSING THE AREA UNDER THE CURVE OF AN IMMUNOSUPRESSANT AND ASSOCIATED METHOD AND SYSTEMS” (INSTITUT NATIONAL DE LA SANTE ET DE LA RECHERCHE MEDICALE, priority 2020, published 2023).

Read-outs that look alike come from different tables or passages of the source.

Data set [1] in a line: Tacrolimus concentrations and interdose AUC in ISBA requests of renal transplant patients. The following applies: human, in vivo, oral; for concentration at 3 h: read-out: Concentration C3 at 3 h; for concentration at 1 h: read-out: Concentration C1 at 1 h; for C0: read-out: Through level C0. Here is the method:
Tacrolimus requests from ISBA website were extracted and cleaned using the tidyverse framework. Patient with a renal transplantation and tacrolimus concentrations measured using HPLC methods were selected. The requests including at least 3 sample times at 0 minutes (min), 60 min and 180 min after dose intake were selected with a range of selection of 30 min to 100 min for the 60 min and 140 min to 220 min for the 180 min (the 0, 60, 180 min is the optimal sampling schedule for Prograf® and Advagraf® while the optimal sampling times requested for Envarsus® is 0, 8 and 12 h after dose intake and this later formulation was not included in the analysis).
The dataset was split into two datasets according to the tacrolimus interdose and two independent prediction functions were developed, one for twice a day formulations (TAD; Prograf®) and one for once a day formulations (OAD; Advagraf®).
The present study used supervised learning to predict the inter-dose AUC for which the reference value have been obtained by MAP-BE in the ISBA website based on 3 concentrations.
The tacrolimus concentrations were binned into 3 theoretical time classes (concentrations at trough (C0 sampled at t=0 min), at 1 h (C1 sampled between 30 and 100 min) and at 3 h (C3 sampled between 140 and 220 min), leading to 3 columns per patient.

The nature of data set [2]: Mycophenolic acid interdose AUC0-12 h in ISBA requests (MPA plasma levels after MMF dose). In kind it is in vivo, human. The following applies: for AUC: human, plasma, oral, Median, read-out: Interdose AUC0_12 h. Here is the method: For patients and data, the dataset was sequentially refined by selecting the requests where MPA plasma levels were measured using HPLC, including at least 3 times of sampling approximately 20 min (10 to 30 min, C20), 60 min (30 to 100 min, C1) and 180 min (140 to 220 min, C3) after dose intake. Actually, the 20, 60, 180 min is the optimal sampling schedule for MMF. A filter was applied to select the requests with an interdose of 12 h. The other predictors available were the morning dose of MMF, the time elapsed between transplantation and MPA plasma sampling, the type of transplant, the associated immunosuppressant and patient age.

Regarding `C=CC[C@@H]1/C=C(\C)C[C@H](C)C[C@H](OC)[C@H]2O[C@@](O)(C(=O)C(=O)N3CCCC[C@H]3C(=O)O[C@H](/C(C)=C/[C@@H]3CC[C@@H](O)[C@H](OC)C3)[C@H](C)[C@@H](O)CC1=O)[C@H](C)C[C@@H]2OC` [tacrolimus], the concentration at 3 h was found to be 17.9 ng/mL in data set [1] (Maximum, OAD, Test (n = 394)); 18.4 ng/mL in data set [1] (Maximum, OAD, Train (n = 1184)); 16.9 ng/mL in data set [1] (Maximum, TAD, Test (n = 1236)); 16.6 ng/mL in data set [1] (Maximum, TAD, Train (n = 3708)); 13 ng/mL in data set [1] (Median, OAD, Test (n = 394)); 13.9 ng/mL in data set [1] (Median, OAD, Train (n = 1184)). Further, the concentration at 3 h in data set [1] (Median, TAD, Test (n = 1236)) was 12.8 ng/mL; in data set [1] (Median, TAD, Train (n = 3708)) it was 12.4 ng/mL; in data set [1] (Minimum, OAD, Test (n = 394)), 9.51 ng/mL; in data set [1] (Minimum, OAD, Train (n = 1184)) it was 9.8 ng/mL; in data set [1] (Minimum, TAD, Test (n = 1236)), 9.6 ng/mL; in data set [1] (Minimum, TAD, Train (n = 3708)) it was 9.3 ng/mL. Moreover, the concentration at 1 h was determined as 17.1 ng/mL in data set [1] (Maxmum, OAD, Test (n = 394)); 18.4 ng/mL in data set [1] (Maxmum, OAD, Train (n = 1184)); 21.7 ng/mL in data set [1] (Maxmum, TAD, Test (n = 1236)); 21.4 ng/mL in data set [1] (Maxmum, TAD, Train (n = 3708)); 12.3 ng/mL in data set [1] (Median, OAD, Test (n = 394)); 12.6 ng/mL in data set [1] (Median, OAD, Train (n = 1184)). For the same compound, the concentration at 1 h came out at 15.4 ng/mL in data set [1] (Median, TAD, Test (n = 1236)); 14.7 ng/mL in data set [1] (Median, TAD, Train (n = 3708)); 8.6 ng/mL in data set [1] (Minimum, OAD, Test (n = 394)); 9 ng/mL in data set [1] (Minimum, OAD, Train (n = 1184)); 10.5 ng/mL in data set [1] (Minimum, TAD, Test (n = 1236)); 10.2 ng/mL in data set [1] (Minimum, TAD, Train (n = 3708)). The AUC in data set [1] (Median, OAD, Test (n = 394), read-out: Interdose AuC) was 222 ng·h/mL; in data set [1] (Median, OAD, Train (n = 1184), read-out: Interdose AuC), 236 ng·h/mL; in data set [1] (Median, TAD, Test (n = 1236), read-out: Interdose AuC) it was 130 ng·h/mL; in data set [1] (Median, TAD, Train (n = 3708), read-out: Interdose AuC), 128 ng·h/mL; in data set [1] (OAD, cleaned ISBA datasets, read-out: interdose AUCs range), 44 to 698 ng·h/mL; in data set [1] (TAD, cleaned ISBA datasets, read-out: interdose AUCs range) it was 22 to 380 ng·h/mL. Also, the C0 came to 12.3 ng/mL in data set [1] (Median, OAD, Test (n = 394)); 12.6 ng/mL in data set [1] (Median, OAD, Train (n = 1184)); 15.4 ng/mL in data set [1] (Median, TAD, Test (n = 1236)); 14.7 ng/mL in data set [1] (Median, TAD, Train (n = 3708)).

Consider `COc1c(C)c2c(c(O)c1C/C=C(\C)CCC(=O)O)C(=O)OC2` [mycophenolic acid], for which the “Interdose AUC0_12 h” value in data set [2] (Maximum, TEST (N = 3219)) was determined as 163.62 mg·h/L; in data set [2] (Maximum, TRAIN (N = 9658)), 181.39 mg·h/L; in data set [2] (Minimum, TEST (N = 3219)), 3.19 mg·h/L; in data set [2] (Minimum, TRAIN (N = 9658)), 1.12 mg·h/L. Further, the AUC in data set [2] (TEST (N = 3219)) was found to be 39200 ng·h/mL; in data set [2] (TRAIN (N = 9658)), 39300 ng·h/mL.
